Data as given in BindingDB's records for doi:10.1021/acs.jmedchem.5b00659 (Taipei Medical University, 2015).

Biological target: Signal transducer and activator of transcription 3 (Homo sapiens, UniProt P40763)
Test: Inhibition of STAT3 tyrosine phosphorylation in human A549 cells by sandwich ELISA method

Sequence of Signal transducer and activator of transcription 3 (P40763 whole entry): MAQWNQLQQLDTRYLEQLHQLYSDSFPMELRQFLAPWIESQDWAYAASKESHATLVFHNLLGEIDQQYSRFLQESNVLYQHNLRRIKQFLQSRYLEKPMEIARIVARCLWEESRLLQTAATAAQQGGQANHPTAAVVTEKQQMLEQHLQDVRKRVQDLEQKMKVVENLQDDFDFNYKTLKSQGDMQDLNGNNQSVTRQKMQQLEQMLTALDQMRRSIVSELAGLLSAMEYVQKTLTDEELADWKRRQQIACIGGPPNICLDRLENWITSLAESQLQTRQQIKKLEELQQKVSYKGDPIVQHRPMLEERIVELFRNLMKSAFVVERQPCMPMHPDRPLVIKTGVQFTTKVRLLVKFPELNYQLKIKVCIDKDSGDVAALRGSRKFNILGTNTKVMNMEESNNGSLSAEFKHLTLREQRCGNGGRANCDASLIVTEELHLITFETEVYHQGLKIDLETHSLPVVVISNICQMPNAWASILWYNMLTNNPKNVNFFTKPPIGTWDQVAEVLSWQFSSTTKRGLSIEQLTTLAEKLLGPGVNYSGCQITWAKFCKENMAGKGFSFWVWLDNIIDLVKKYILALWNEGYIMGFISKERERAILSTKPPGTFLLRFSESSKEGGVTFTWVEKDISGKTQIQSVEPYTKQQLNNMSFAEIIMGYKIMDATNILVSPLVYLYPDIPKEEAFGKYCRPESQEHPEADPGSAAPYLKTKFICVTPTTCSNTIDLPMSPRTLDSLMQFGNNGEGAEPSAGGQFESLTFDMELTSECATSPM

IC50: 2750 nM
SMILES: COc1ccc(S(=O)(=O)Nc2ccccc2-c2ccc(F)c(F)c2)cc1
